Assay results published in ChEMBL document CHEMBL1201862, “PubChem BioAssay data set” (2004).
The source made the active and inactive calls.

What was measured:
[1] = biological target: T1, Kappa-type opioid receptor (Homo sapiens, UniProt P41145); assay: SAR analysis of small molecule agonists of the kappa opioid receptor via a luminescent beta-arrestin assay - Set 3. [Related pubchem assays (depositor defined):AID1777, AID1785, AID1786, AID1966, AID2133, AID2136, AID2284, AID2500]; assay type: functional
Mu-type opioid receptor = Mu-type opioid receptor (Homo sapiens, UniProt P35372); assay: SAR Analysis of Agonists of the MOR Receptor using an Image-Based Assay - Set 3. [Related pubchem assays (depositor defined):AID1777, AID1785, AID1786, AID1966, AID2133, AID2136, AID2284, AID2285, AID2352]; assay type: functional
[2] = biological target: Delta-type opioid receptor (Homo sapiens, UniProt P41143); assay: SAR Analysis of Agonists of the DOR Receptor using an Image-Based Assay - Set 3. [Related pubchem assays (depositor defined):AID1777, AID1786]; assay type: functional
[3] = biological target: T1, Kappa-type opioid receptor; assay: KOR agonist analogs, arrestin-GFP redistribution, SAR follow-up, imaging, image-based, set 3 (AID 488833); assay type: functional
H9c2 = assay: cells; assay type: functional, cell-based; conditions: Rattus norvegicus, H9c2, Myocardium;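 note: confirmatory concentration-response retest of ultra-high-throughput screening hits for modulation of myocardial damage; cell death induced by hydrogen peroxide oxidative stress; compound pretreatment for 60 min then peroxide exposure for 2 h; potency is for protecting the cells against peroxide damage rather than for killing them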
[4] = Counterscreen for AddAB inhibitors: absorbance-based bacterial cell-based high throughput dose response assay for inhibitors of bacterial viability. [Related pubchem assays (depositor defined):AID435030, AID449728, AID449731, AID488942, AID488955, AID488956]; assay type: functional
Exodeoxyribonuclease V = Exodeoxyribonuclease V (Escherichia coli (strain K12), UniProt P04993+P07648+P08394); assay: E. coli RecBCD inhibitors, dose response, counter-screen for AddAB inhibitor project, absorbance, V66 E. coli, mutant T4 phage (AID 492957); assay type: functional, cell-based, Escherichia coli str. K-12 substr. MG1655
Sequence of Exodeoxyribonuclease V (P04993 whole entry): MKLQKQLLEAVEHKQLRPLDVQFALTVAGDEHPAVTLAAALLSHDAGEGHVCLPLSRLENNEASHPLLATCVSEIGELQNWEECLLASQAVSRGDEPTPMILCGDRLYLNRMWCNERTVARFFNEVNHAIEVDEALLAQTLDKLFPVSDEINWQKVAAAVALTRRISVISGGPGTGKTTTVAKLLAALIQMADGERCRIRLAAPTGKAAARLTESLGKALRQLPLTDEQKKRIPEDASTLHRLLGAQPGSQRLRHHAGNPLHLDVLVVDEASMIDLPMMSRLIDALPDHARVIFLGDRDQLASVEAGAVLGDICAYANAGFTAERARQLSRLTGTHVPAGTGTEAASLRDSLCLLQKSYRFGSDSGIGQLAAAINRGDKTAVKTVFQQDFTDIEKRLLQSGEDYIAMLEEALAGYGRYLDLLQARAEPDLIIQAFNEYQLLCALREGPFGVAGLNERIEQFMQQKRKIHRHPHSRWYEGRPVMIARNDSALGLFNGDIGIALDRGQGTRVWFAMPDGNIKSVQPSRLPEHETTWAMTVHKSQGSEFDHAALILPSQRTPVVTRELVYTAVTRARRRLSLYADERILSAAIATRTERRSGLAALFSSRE
Sequence of Exodeoxyribonuclease V (P07648 whole entry): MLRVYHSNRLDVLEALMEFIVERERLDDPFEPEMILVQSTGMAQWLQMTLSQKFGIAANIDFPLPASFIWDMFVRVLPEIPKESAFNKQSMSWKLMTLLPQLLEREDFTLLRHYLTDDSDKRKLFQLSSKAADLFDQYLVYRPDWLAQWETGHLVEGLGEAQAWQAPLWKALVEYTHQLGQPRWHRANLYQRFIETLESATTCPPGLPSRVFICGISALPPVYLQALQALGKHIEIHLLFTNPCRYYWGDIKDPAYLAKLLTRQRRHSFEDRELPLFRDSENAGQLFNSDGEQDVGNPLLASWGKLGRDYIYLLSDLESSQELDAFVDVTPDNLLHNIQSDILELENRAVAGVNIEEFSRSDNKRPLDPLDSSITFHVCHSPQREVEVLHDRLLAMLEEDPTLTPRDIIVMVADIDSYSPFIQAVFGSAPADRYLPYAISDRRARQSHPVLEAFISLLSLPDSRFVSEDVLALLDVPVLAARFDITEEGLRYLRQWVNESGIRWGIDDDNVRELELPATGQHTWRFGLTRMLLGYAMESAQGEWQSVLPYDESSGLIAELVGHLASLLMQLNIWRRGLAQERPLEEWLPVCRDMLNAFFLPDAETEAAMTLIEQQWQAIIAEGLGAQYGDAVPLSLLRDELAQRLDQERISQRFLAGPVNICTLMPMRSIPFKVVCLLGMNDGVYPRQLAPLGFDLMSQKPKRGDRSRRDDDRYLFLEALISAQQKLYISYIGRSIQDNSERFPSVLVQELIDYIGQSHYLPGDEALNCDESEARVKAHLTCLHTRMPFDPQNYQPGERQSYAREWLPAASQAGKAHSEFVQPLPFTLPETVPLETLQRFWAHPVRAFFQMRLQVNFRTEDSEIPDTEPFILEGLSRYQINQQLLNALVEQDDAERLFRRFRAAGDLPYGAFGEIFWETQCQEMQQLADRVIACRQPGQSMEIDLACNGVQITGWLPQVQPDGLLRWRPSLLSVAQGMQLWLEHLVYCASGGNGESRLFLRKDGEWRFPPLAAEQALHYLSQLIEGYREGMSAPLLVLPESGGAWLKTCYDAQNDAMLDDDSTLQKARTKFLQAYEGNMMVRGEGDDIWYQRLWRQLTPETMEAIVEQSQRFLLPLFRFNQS
Sequence of Exodeoxyribonuclease V (P08394 whole entry): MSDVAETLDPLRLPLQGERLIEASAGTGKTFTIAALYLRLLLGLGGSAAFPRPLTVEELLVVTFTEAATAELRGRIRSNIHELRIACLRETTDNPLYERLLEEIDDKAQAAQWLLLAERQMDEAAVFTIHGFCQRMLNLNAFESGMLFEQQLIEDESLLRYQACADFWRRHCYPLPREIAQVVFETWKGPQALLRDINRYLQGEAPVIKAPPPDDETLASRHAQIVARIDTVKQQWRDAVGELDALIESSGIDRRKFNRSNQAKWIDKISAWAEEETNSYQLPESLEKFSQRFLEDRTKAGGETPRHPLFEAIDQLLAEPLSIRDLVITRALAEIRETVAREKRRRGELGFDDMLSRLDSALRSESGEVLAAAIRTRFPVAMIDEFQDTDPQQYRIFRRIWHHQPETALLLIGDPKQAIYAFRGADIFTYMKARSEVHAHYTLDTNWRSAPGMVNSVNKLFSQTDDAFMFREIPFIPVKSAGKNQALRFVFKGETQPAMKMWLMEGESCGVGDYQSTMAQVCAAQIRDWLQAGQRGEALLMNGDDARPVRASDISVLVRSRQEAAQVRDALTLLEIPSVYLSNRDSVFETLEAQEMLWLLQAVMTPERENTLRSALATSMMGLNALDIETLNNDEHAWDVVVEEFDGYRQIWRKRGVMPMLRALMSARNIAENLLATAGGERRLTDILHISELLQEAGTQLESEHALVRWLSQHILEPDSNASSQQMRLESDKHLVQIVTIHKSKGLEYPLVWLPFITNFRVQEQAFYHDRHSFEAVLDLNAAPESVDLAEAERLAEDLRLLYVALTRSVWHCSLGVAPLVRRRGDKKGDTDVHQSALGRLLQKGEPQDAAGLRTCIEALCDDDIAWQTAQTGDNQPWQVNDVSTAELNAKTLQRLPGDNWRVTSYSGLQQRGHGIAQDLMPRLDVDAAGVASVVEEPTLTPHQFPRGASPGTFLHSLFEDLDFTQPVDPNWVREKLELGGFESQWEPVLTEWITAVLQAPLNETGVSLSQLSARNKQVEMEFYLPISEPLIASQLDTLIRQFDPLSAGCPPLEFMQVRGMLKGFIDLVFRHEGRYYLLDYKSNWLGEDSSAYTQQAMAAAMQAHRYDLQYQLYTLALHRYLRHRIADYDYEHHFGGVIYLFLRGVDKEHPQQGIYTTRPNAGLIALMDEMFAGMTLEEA

T1 sequence (P41145 whole entry): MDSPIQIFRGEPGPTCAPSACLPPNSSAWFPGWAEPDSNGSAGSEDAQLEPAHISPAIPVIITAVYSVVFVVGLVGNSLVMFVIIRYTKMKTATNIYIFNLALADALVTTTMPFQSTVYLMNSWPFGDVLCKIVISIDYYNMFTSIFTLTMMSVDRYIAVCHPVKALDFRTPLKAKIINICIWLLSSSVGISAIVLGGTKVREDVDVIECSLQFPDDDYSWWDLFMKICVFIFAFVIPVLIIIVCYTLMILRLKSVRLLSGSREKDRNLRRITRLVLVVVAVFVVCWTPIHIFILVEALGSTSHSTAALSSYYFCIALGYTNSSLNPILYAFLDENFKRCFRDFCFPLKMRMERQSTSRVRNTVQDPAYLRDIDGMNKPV
Sequence of Delta-type opioid receptor (P41143 whole entry): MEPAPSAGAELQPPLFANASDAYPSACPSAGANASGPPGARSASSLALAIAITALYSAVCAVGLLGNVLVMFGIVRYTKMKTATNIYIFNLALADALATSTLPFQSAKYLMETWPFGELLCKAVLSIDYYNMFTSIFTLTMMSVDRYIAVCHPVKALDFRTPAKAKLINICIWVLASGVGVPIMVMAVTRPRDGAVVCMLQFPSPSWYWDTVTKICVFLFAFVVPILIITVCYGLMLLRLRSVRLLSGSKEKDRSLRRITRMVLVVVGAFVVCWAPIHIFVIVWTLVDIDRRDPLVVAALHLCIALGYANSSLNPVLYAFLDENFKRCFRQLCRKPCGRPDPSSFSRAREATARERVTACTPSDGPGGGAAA
Sequence of Mu-type opioid receptor (P35372 whole entry): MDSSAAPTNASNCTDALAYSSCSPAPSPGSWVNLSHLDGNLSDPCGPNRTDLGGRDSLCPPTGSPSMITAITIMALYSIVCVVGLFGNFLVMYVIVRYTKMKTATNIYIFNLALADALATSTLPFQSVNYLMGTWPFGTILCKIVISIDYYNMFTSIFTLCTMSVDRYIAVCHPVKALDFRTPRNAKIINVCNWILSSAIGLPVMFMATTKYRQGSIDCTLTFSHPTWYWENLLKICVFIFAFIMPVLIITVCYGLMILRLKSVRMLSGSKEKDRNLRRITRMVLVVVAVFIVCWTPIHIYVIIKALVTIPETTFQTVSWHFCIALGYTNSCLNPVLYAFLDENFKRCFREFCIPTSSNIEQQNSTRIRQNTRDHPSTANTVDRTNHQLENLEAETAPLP

EC50 [1]	EC50 (Mu-type opioid receptor)	EC50 [2]	EC50 [3]	SMILES	IC50 (H9c2)	IC50 [4]	IC50 (Exodeoxyribonuclease V)
8.21 µM (active)	> 32 µM (inactive)	> 64 µM (inactive)	12.2 µM (inactive)	Cc1c(CSc2nnc(-c3ccccn3)n2Cc2ccco2)cccc1[N+](=O)[O-]	–	–	–
–	–	–	–	O=C1c2ccccc2NC(c2ccc(-c3cccc([N+](=O)[O-])c3)o2)N1O (configuration not stated)	11.9 µM (active)	> 119 µM (inactive)	> 119 µM (inactive)
